Data on 3 compounds can be found in article PMC10285950 (ACS Omega, 2023).

“And” between values parts separate entries of the source, which are not always exact repeats. Equal entries are not always repeated.

In assay [1] the target is T1, 5-HT1AR (HEK-h5HT1A membranes) (Homo sapiens, UniProt P08908).
T1 sequence (P08908 1-422): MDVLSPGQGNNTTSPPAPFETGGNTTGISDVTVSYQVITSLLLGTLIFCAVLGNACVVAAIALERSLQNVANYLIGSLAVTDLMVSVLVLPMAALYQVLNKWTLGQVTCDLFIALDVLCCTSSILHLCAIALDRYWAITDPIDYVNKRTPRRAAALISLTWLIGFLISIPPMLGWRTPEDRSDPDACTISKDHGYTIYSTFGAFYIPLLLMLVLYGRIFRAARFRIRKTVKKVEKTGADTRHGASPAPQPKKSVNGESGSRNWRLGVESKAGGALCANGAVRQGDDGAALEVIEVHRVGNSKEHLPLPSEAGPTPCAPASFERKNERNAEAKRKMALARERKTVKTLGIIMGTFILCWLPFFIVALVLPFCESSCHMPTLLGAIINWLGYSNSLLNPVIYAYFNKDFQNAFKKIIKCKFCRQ
Put plainly: HEK-5HT1A [35S]GTPγS binding functional assay. Format: biochemical. The note with it: for 5-HT1AR [35S]GTPγS assay % max ± SEM: maximal effect normalized to maximal effect of serotonin; for functional character at 5-HT1AR ([35S]GTPγS assay): result in words.

Assay [2] addresses T2, human 5HT1A receptor (Homo sapiens, UniProt P08908).
T2 sequence (P08908 1-422): T1 sequence (P08908 1-422)
Put plainly: [3H]8-OH-DPAT binding at the 5-HT1A receptor. The note with it: HEK-h5HT1A membranes.

For assay [3], the target named is h5HT7A receptor (Homo sapiens, UniProt P34969). Kind of assay: [3H]5-HT binding at 5HT7A receptors. The conditions noted are these: HEK cells transiently transfected with h5HT7A.
In assay [4] the target is T3, 5-HT7AR (Homo sapiens, UniProt P34969). Put plainly: HEK-5HT7A/cAMP. The assay is classed as cell-based.
Assay [5] has as its target T3, 5-HT7AR. Put plainly: HEK-5HT7A/cAMP. The assay is classed as cell-based. This is another data set of the same source.

Chain of h5HT7A receptor (P34969 1-445 isoform P34969-2): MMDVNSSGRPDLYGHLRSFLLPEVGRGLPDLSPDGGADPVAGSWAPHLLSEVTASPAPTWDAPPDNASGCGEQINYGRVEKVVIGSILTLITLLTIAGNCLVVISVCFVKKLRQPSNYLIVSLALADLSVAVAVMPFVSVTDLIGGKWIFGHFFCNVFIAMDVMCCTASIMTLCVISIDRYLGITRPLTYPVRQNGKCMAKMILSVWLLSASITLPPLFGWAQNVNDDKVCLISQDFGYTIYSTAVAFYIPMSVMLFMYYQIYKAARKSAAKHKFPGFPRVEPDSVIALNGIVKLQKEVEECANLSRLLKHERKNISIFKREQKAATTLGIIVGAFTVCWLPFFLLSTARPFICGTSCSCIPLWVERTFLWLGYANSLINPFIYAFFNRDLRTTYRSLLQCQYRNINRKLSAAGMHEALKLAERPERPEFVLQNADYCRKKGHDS
T3 sequence (P34969 1-445 isoform P34969-2): as above

Regarding `NCCc1c[nH]c2ccc(O)cc12` [5-HT, serotonin], in assay [1], the “5-HT1AR [35S]GTPγS assay % max ± SEM” value amounted to 101.2 ± 1.1% and the “functional character at 5-HT1AR ([35S]GTPγS assay)” value is on record as “full agonist”. Moreover, the “5-HT1AR [35S]GTPγS assay % max ± SEM” value in assay [1] (listed as serotonin (5-HT)) is 101.2%. Besides, the “5-HT1AR [3H]8-OH-DPAT binding hill slope ± SEM” value in assay [2] is “–0.96 ± 0.06”. For the same compound, the “5-HT7AR [3H]5-HT binding hill slope ± SEM” value in assay [3] is given as “–1.07 ± 0.09”. In addition, the “5-HT7AR adenylate cyclase % max ± SEM” value in assay [4] (agonist effect, normalized to maximal serotonin effect) was 95.8% and 95.8 ± 1.6%.

With `CC1(CCCN2CCN(c3ccccn3)CC2)Cc2cc(Cl)ccc2C1=O` (racemic) [SYA0340, 5-chloro-2-methyl-2-(3-(4-(pyridin-2-yl)piperazin-1-yl)propyl)-2,3-dihydro-1H-inden-1-one], the “5-HT7AR adenylate cyclase % max inhib. ± SEM” value in assay [5] (maximal inhibition of cAMP formation defined with 10 μM lurasidone) is 94.7 ± 4.1%. In assay [1], the “5-HT1AR [35S]GTPγS assay % max ± SEM” value was 101.5% and 101.5 ± 2.8%; the “functional character at 5-HT1AR ([35S]GTPγS assay)” value is recorded as “full agonist”. Further, in assay [2], the “5-HT1AR [3H]8-OH-DPAT binding hill slope ± SEM” value is “–0.66 ± 0.09”. Further, in assay [3], the “5-HT7AR [3H]5-HT binding hill slope ± SEM” value was “–0.59 ± 0.03”. For the same compound, the “agonist activity at 5-HT7AR” value in assay [4] (result in words) is given as “do not show any agonist activity”.

With `O=C1[C@@H]2[C@H]3CC[C@H](C3)[C@@H]2C(=O)N1C[C@@H]1CCCC[C@H]1CN1CCN(c2nsc3ccccc23)CC1` [lurasidone], in assay [5] (read-out: 5-HT7AR adenylate cyclase % max inhib. ± SEM), the inhibition is 98 ± 2%. Moreover, the “5-HT7AR [3H]5-HT binding hill slope ± SEM” value in assay [3] was “–0.76 ± 0.11”.
